Reference: patent US7799775B2, “Pyrimidine derivatives” (ASKA Pharmaceutical Co., Ltd., priority 2004, dated 2010)

Assays:
human 5-HT1A receptor = target: T1, human 5-HT1A receptor (Homo sapiens, UniProt P08908); assay: Affinity measurement of the compounds to human 5-HT1A receptor (in vitro), [3H]8-OH-DPAT binding; settings: test compound 100 nmols/L, [3H]8-OH-DPAT 0.25 nmols/L, CHO cell membrane expressing human 5-HT1A receptor; for inhibition at 0.1 µM: read-out: Percent Inhibition (%) on Each Receptor's Binding at 10^−7M, 5-HT1A
T1 construct: purchased Packard Bioscience; host or cells: CHO cells (membrane preparation)
T1 sequence (P08908 1-422): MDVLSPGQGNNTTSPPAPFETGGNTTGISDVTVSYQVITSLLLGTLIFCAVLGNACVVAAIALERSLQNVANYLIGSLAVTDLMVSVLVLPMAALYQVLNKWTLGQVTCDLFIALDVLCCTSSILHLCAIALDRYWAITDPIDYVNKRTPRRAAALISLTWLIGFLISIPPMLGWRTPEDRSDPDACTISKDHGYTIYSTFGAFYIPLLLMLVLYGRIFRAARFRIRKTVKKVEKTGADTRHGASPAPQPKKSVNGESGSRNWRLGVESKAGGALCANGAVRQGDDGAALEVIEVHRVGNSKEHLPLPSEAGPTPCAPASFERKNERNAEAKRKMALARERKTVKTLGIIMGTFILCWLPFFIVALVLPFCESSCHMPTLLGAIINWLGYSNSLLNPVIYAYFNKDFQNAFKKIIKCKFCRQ
Outline: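 Membranes from CHO cells expressing human 5-HT1A were incubated 60 min at 27 °C with 0.25 nmol/L [3H]8-OH-DPAT and compound in Tris/MgSO4/EDTA/ascorbate buffer, pH 7.4. Bound radioactivity was collected on PEI-soaked GF/C filters and counted; percent inhibition was corrected for non-specific binding defined with 10 μmol/L 8-OH-DPAT.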

human 5-HT3 receptor = target: T2, human 5-HT3 receptor (Homo sapiens, UniProt P46098); assay: Measurement of affinity to human 5-HT3 receptor (in vitro), [3H]BRL-43694 binding; settings: test compound 100 nmols/L, [3H]BRL-43694 0.5 nmols/L, HEK-293 cell membrane expressing human 5-HT3 receptor; for inhibition at 0.1 µM: read-out: Percent Inhibition (%) on Each Receptor's Binding at 10^−7M, 5-HT3
T2 construct: purchased BIOLINKS K.K; host or cells: HEK-293 cells (membrane preparation)
T2 sequence (P46098 24-478): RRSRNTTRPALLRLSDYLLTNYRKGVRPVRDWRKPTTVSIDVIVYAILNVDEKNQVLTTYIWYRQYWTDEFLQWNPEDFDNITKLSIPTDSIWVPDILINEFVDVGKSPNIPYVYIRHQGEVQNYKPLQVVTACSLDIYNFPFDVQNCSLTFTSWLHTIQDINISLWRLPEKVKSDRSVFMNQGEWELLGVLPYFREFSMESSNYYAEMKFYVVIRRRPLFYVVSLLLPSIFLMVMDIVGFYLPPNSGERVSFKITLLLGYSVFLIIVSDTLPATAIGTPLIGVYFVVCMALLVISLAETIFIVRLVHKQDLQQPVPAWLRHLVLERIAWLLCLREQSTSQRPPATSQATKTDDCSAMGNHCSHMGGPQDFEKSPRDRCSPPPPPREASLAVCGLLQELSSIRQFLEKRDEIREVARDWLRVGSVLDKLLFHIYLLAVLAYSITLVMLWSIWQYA
Outline: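 Membranes from HEK-293 cells expressing the receptor were incubated with 0.5 nmol/L radioligand and compound for 60 min at 25 °C in Tris/MgCl2/EDTA buffer, pH 7.5. Bound radioactivity was collected by filtration and counted. Percent inhibition was corrected for non-specific binding defined with 10 μmol/L tropisetron; compounds were tested at 100 nmol/L.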

| Structure (SMILES) | inhibition at 0.1 µM (human 5-HT1A receptor) [%] | inhibition at 0.1 µM (human 5-HT3 receptor) [%] | Percent Inhibition (%) on Each Receptor's Binding at 10^−7M, 5-HT1A (human 5-HT1A receptor) [%] | Percent Inhibition (%) on Each Receptor's Binding at 10^−7M, 5-HT3 (human 5-HT3 receptor) [%] |
| --- | --- | --- | --- | --- |
| c1cc2occc2c(N2CCN3CCCCC3C2)n1 (centres unmarked) [Production Example 119, 4-octahydropyrido[1,2-a]pyrazin-2-ylfuro[3,2-c]pyridine] | 33.7 | 71.9 | – | – |
| Brc1cc2c(N3CCN4CCC[C@H]4C3)nccc2s1 [Production Example 106, 2-bromo-4-((8aS)-octahydropyrrolo[1,2-a]pyrazin-2-yl)thieno[3,2-c]-pyridine] | 101 | 98.3 | – | – |
| Cc1sc2nc(CCCCN3CCN(c4ccc5ccccc5n4)CC3)[nH]c(=O)c2c1C [Example 3-1, 5,6-dimethyl-2-[4-(4-quinolin-2-ylpiperazin-1-yl)butyl]-3H-thieno[2,3-d]pyrimidin-4-one] | 77 | 96.9 | – | – |
| COc1ccc2ccnc(N3CCN(C)CC3)c2c1 [Production Example 32, 7-methoxy-1-(4-methylpiperazin-1-yl)isoquinoline] | 91.7 | 94.4 | – | – |
| NN1Oc2c(sc3c2CCCCCC3)N=C1SCCCN1CCN(c2ccc3ccccc3n2)CC1 [Example 1-24, 3-amino-2-[3-(4-quinolin-2-ylpiperazin-1-yl)propylthio]-3,4,5,6,7,8,9,10-octahydro-4-oxa-11-thia-1,3-diaza-11H-cycloocta[a]-indene] | 95.7 | 79.6 | – | – |
| CN1CCN(c2nccc3c(Cl)cccc23)CC1 [Production Example 61, 5-chloro-1-(4-methylpiperazin-1-yl)isoquinoline] | 25.3 | 94.1 | – | – |
| c1cnc2c(N3CCN4CCC[C@H]4C3)nccc2c1 [Production Example 74, 8-((8aS)-octahydropyrrolo[1,2-a]pyrazin-2-yl)-1,7-naphthyridine] | 94.6 | 98.9 | – | – |
| Cn1c(NCCCN2CCN(c3ccc4ccccc4n3)CC2)nc2ccccc2c1=O [Example 7-30, 3-methyl-2-[3-(4-quinolin-2-ylpiperazin-1-yl)propylamine]-3H-quinazolin-4-one] | 73.5 | 92.4 | – | – |
| Cc1cc2c(N3CCNCC3)nccc2o1 [Production Example 25, 2-methylpiperazin-1-ylfuro[3,2-c]pyridine] | 83.2 | 65.5 | – | – |
| CN1CCN(c2nccc3ccc(F)cc23)CC1 [Production Example 52, 7-fluoro-1-(4-methylpiperazin-1-yl)isoquinoline] | 84.1 | 97 | – | – |
| c1cc2ccoc2c(N2CCN3CCC[C@@H]3C2)n1 [Production Example 110, 7-((8aR)-octahydropyrrolo[1,2-a]pyrazin-2-yl)furo[2,3-c]pyridine] | 98.9 | 97.9 | – | – |
| c1cc2ccsc2c(N2CCN3CCCCC3C2)n1 (centres unmarked) [Production Example 120, 7-octahydropyrido[1,2-a]pyrazin-2-ylthieno[2,3-c]pyridine] | 81 | 99.4 | – | – |
| COc1ccc(-n2c(CCCCN3CCN(c4ccc5ccccc5n4)CC3)nc3ccccc3c2=O)cc1 [Example 7-17, 3-(4-methoxyphenyl)-2-[4-(4-quinolin-2-ylpiperazin-1-yl)butyl]-3H-quinazolin-4-one] | 50.6 | 1.9 | – | – |
| Brc1ccc2ccnc(N3CCNCC3)c2c1 [Production Example 30, 7-bromo-1-piperazin-1-ylisoquinoline] | 92.8 | 93.4 | – | – |
| Cc1sc2nc(CCCCN3CCN(c4ccc5ccccc5n4)CC3)n(C)c(=O)c2c1C [Example 7-23, 3,5,6-trimethyl-2-[4-(4-quinolin-2-ylpiperazin-1-yl)butyl]-3H-thieno[2,3-d]pyrimidin-4-one] | 77 | 74.8 | – | – |
| Cn1c(SCCCN2CCN(c3ccc4ccccc4n3)CC2)nc2ccccc2c1=O [Example 7-28] | 74.7 | 87.3 | – | – |

| Structure (SMILES) | inhibition at 0.1 µM (human 5-HT1A receptor) [%] | inhibition at 0.1 µM (human 5-HT3 receptor) [%] | Percent Inhibition (%) on Each Receptor's Binding at 10^−7M, 5-HT1A (human 5-HT1A receptor) [%] | Percent Inhibition (%) on Each Receptor's Binding at 10^−7M, 5-HT3 (human 5-HT3 receptor) [%] |
| --- | --- | --- | --- | --- |
| NS(=O)(=O)Oc1ccc2ccnc(N3CCN4CCC[C@H]4C3)c2c1 [Production Example 87] | 96.4 | 96.9 | – | – |
| Nn1c(CCCCN2CCN(c3ccc4ccccc4n3)CC2)nc2ccc(F)cc2c1=O [Example 4-56, 3-amino-6-fluoro-2-[4-(4-quinolin-2-ylpiperazin-1-yl)butyl]-3H-quinazolin-4-one] | 96.9 | 50.2 | – | – |
| O[C@@H]1C[C@H]2CN(c3nccc4ccoc34)CCN2C1 [Production Example 111, 7-((7R,8aS)-7-hydroxyoctahydropyrrolo[1,2-a]pyrazin-2-yl)furo[2,3-c]-pyridine] | 48 | 95.5 | – | – |
| c1cc2sccc2c(N2CCN3CCC[C@@H]3C2)n1 [Production Example 109, 4-((8aR)-octahydropyrrolo[1,2-a]pyrazin-2-yl)thieno[3,2-c]pyridine] | 75.4 | 92.5 | – | – |
| Cn1c(CCCCN2CCN(c3ccc4ccccc4n3)CC2)nc2c(cnn2C)c1=O [Example 7-19, 1,5-dimethyl-6-[4-(4-quinolin-2-ylpiperazin-1-yl)butyl]-1,5-dihydropyrazolo[3,4-d]pyrimidin-4-one] | 85 | 7.4 | – | – |
| CN1CCN(c2nccc3cccnc23)CC1 [Production Example 23, 8-(4-methylpiperazin-1yl)[1,7]naphthyridine] | 83.2 | 85.8 | – | – |
| c1cc2occc2c(N2CCN3CCC[C@H]3C2)n1 [Production Example 105, 4-((8aS)-octahydropyrrolo[1,2-a]pyrazin-2-yl)furo[3,2-c]pyridine] | 72.7 | 96.4 | – | – |
| Clc1ccc2c(N3CCNCC3)nccc2c1 [Production Example 57, 6-chloro-1-piperazin-1-ylisoquinoline] | 88.9 | 96.5 | – | – |
| Cn1c(CCCCN2CCN(c3ccc4ccccc4n3)CC2)nc2ccc(Br)cc2c1=O [Example 7-26, 6-bromo-3-methyl-2-[4-(4-quinolin-2-ylpiperazin-1-yl)butyl]-3H-quinazolin-4-one] | 85.2 | 71.6 | – | – |
| Nn1c(SCCCN2CCN(c3ccc4ccccc4n3)CC2)nc2sc3c(c2c1=O)CCCC3 [Example 1-4, 3-amino-2-[3-(4-quinolin-2-ylpiperazin-1-yl)propylthio]-5,6,7,8-tetrahydro-3H-benzo[4,5]thieno[2,3-d]pyrimidin-4-one] | 96.6 | 93.2 | – | – |
| CCN1CCN(c2nccc3ccsc23)CC1 [Production Example 17, 7-(4-ethylpiperazin-1-yl)-thieno[2,3-c]pyridine] | 83.6 | 82.9 | – | – |
| NNc1cccc2nc(CCCCN3CCN(c4ccc5ccccc5n4)CC3)n(N)c(=O)c12 [Example 4-28, 3-amino-5-hydrazino-2-[4-(4-quinolin-2-ylpiperazin-1-yl)butyl]-3H-quinazolin-4-one] | 97.6 | 45.1 | – | – |
| c1ccc(CO[C@@H]2C[C@H]3CN(c4nccc5sccc45)CCN3C2)cc1 [Production Example 117, 4-((7R,8aS)-7-benzyloxyoctahydropyrrolo[1,2-a]pyrazin-2-yl)thieno-[3,2-c]pyridine] | 57.7 | 10.6 | – | – |
| Cc1cc(N2CCN(CCCSc3nc4sc5c(c4c(=O)n3N)CCCC5)CC2)nc2ccccc12 [Example 1-33] | – | – | 94.0 | 94.2 |
| COc1ccc2c(N3CCNCC3)nccc2c1 [Production Example 40, 6-methoxy-1-piperazin-1-ylisoquinoline] | 42.9 | 99.3 | – | – |
